Measurements as given in PubChem BioAssay (NCI).
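Method: 48-hour compound exposure of cells in 96-well plates, five concentrations, linear interpolation of endpoints. TGI: total growth inhibition.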

How the values were obtained:
Assay in all cases: growth of human tumour cells (NCI), 48 h
[1] = tested on: 786-0 renal
[2] = tested on: A498 renal
[3] = tested on: A549 NSCLC
[4] = tested on: ACHN renal
[5] = tested on: CAKI-1 renal
[6] = tested on: CCRF-CEM leukemia
[7] = tested on: COLO 205 colon
[8] = tested on: DU-145 prostate
[9] = tested on: EKVX NSCLC
[10] = tested on: HCC-2998 colon
[11] = tested on: HCT-116 colon
[12] = tested on: HCT-15 colon
[13] = tested on: HL-60(TB) leukemia
[14] = tested on: HOP-62 NSCLC
[15] = tested on: HOP-92 NSCLC
[16] = tested on: HS 578T breast
[17] = tested on: HT29 colon
[18] = tested on: IGROV1 ovarian
[19] = tested on: K-562 leukemia
[20] = tested on: KM12 colon
[21] = tested on: LOX IMVI melanoma
[22] = tested on: M14 melanoma
[23] = tested on: MALME-3M melanoma
[24] = tested on: MDA-MB-231 breast
[25] = tested on: MDA-MB-435
[26] = tested on: MDA-N
[27] = tested on: MOLT-4 leukemia
[28] = tested on: NCI-H226 lung
[29] = tested on: NCI-H23 lung
[30] = tested on: NCI-H460 lung
[31] = tested on: NCI-H522 lung
[32] = tested on: NCI/ADR-RES ovarian
[33] = tested on: OVCAR-3 ovarian
[34] = tested on: OVCAR-4 ovarian
[35] = tested on: OVCAR-5 ovarian
[36] = tested on: OVCAR-8 ovarian
[37] = tested on: PC-3 prostate
[38] = tested on: RPMI-8226 leukemia
[39] = tested on: RXF 393 renal
[40] = tested on: SF-268 CNS
[41] = tested on: SF-295 CNS
[42] = tested on: SF-539 CNS
[43] = tested on: SK-MEL-28 melanoma
[44] = tested on: SK-MEL-5 melanoma
[45] = tested on: SN12C renal
[46] = tested on: SNB-19 CNS
[47] = tested on: SNB-75 CNS
[48] = tested on: SR leukemia
[49] = tested on: SW-620 colon
[50] = tested on: TK-10 renal
[51] = tested on: U251 CNS
[52] = tested on: UACC-257 melanoma
[53] = tested on: UACC-62 melanoma
[54] = tested on: UO-31 renal

Measured: TGI

O=c1c2cc([N+](=O)[O-])ccc2[nH]n1Cc1ccccn1
> 100 µM: [1] | [2] | [3] | [4] | [5] | [6] | [7] | [8] | [9] | [10] | [11] | [12] | [13] | [14] | [15] | [16] | [17] | [18] | [19] | [20] | [21] | [22] | [23] | [24] | [25] | [26] | [27] | [28] | [29] | [30] | [31] | [32] | [33] | [34] | [35] | [36] | [37] | [38] | [39] | [40] | [41] | [42] | [43] | [44] | [45] | [46] | [47] | [48] | [49] | [50] | [51] | [52] | [53] | [54]
